Assay results as given in patent publication US20160046618A1, “Cyclopropyl Fused Thiazin-2-Amine Compounds as Beta-Secretase Inhibitors and Methods of Use” (AMGEN INC., priority 2014, published 2016).
Read-outs that look alike come from different tables or passages of the source.

Columns and labels:
Aβ 40 in rat brain = assay: In vivo inhibition of beta-secretase: Aβ40 reduction in rat brain; conditions: after 4 h
Text: (§1) In Vivo Inhibition of Beta-Secretase
Several animal models, including mouse, rat, dog, and monkey, may be used to screen for inhibition of beta-secretase activity in vivo following administration of a test compound sample. Animals used in this invention can be wild type, transgenic, or gene knockout animals. […] One to twenty-four hours following the administration of compound, animals are sacrificed, and brains as well as cerebrospinal fluid (CSF) and plasma are removed for analysis of A-beta levels and drug or test compound concentrations (Dovey et al., 2001, Journal of Neurochemistry, 76,173-181) Beginning at time 0, animals are administered by oral gavage, or other means of delivery such as intravenous injection, an inhibitory test compound of up to 100 mg/kg in a standard, conventional formulation, such as 2% hydroxypropyl methylcellulose, 1% Tween80. A separate group of animals receive 2% hydroxypropyl methylcellulose, 1% Tween80 alone, containing no test compound, and serve as a vehicle-control group. At the end of the test period, animals are sacrificed and brain tissues, plasma or cerebrospinal fluid are collected. […] Homogenates are centrifuged at 355,000 g, 4° C. for 30 minutes. CSF or brain supernatants are then analyzed for the presence of A-beta peptide by specific sandwich ELISA assays based on ECL (Electrochemiluminescence) technology. For example, rat Abeta40 is measured using biotinylated-4G8 (Signet) as a capture antibody and Fab40 (an in-house antibody specific to the C-terminal of Abeta40) as a detection antibody.
(§2) Actual vehicles used: Oral: 2% HPMC, 1% Tween80, pH 2.2

human recombinant BACE1 = human recombinant BACE1 (Homo sapiens (Human), UniProt P56817); assay: In vitro enzymatic BACE1 FRET assay; type: biochemical; conditions: BACE1 FRET enzyme assay; read-out: IC50 IP (μM) BACE1 enzyme
In short: (§3)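 Reactions were initiated by adding 50 nM of a peptide carrying fluorophore and quencher on opposite sides of the cleavage site and ran for one hour. Tris buffer then brought the pH to neutrality, ending the reaction, and fluorescence was measured (488 nm excitation, 590 nm emission).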

Recombinant Cat D = Recombinant Cat D (Homo sapiens (Human), UniProt P07339); assay: In vitro enzymatic Cathepsin D (Cat D) FRET assay; type: biochemical; conditions: Cathepsin D FRET enzyme assay; read-out: IC50 IP (μM) CatD
In short: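 CHO-expressed enzyme; buffer 0.05 M citrate pH 3.5, 5 mM CHAPS, 10% DMSO final. Start with FRET substrate 20 nM, 1 h incubation, Tris stop (pH to neutral), fluorescence ex 500 nm/em 580 nm.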

[1] = tested on: Aβ40 in conditioned medium of cells stably expressing Amyloid Precursor Protein (APP); assay: In vitro BACE-1 cell-based assay (Aβ40 sandwich ELISA); conditions: read-out: IC50 IP (μM) BACE1 cell
In short: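 Aβ40 in supernatants measured by time-resolved fluorescence sandwich ELISA, with pAb40 as capture and biotin-6E10 as detector antibody, each incubated at 4 °C.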

Aβ 40 in rat CSF = assay: In vivo inhibition of beta-secretase: Aβ40 reduction in rat CSF; conditions: after 4 h
Text: as §1
Several animal models, including mouse, rat, dog, and monkey, may be used to screen for inhibition of beta-secretase activity in vivo following administration of a test compound sample. Animals used in this invention can be wild type, transgenic, or gene knockout animals. For example, the Tg2576 mouse model, prepared and conducted as described in Hsiao et al., 1996, Science 274, 99-102, and other non-transgenic or gene knockout animals are useful to analyze in vivo inhibition of Amyloid beta peptide (Abeta) production in the presence of inhibitory test compounds. Generally, 2 to 18 month old Tg2576 mice, gene knockout mice or non-transgenic animals are administered test compounds formulated in vehicles, such as cyclodextran, phosphate buffers, hydroxypropyl methylcellulose or other suitable vehicles. One to twenty-four hours following the administration of compound, animals are sacrificed, and brains as well as cerebrospinal fluid (CSF) and plasma are removed for analysis of A-beta levels and drug or test compound concentrations (Dovey et al., 2001, Journal of Neurochemistry, 76,173-181) Beginning at time 0, animals are administered by oral gavage, or other means of delivery such as intravenous injection, an inhibitory test compound of up to 100 mg/kg in a standard, conventional formulation, such as 2% hydroxypropyl methylcellulose, 1% Tween80. A separate group of animals receive 2% hydroxypropyl methylcellulose, 1% Tween80 alone, containing no test compound, and serve as a vehicle-control group. At the end of the test period, animals are sacrificed and brain tissues, plasma or cerebrospinal fluid are collected. […] Homogenates are centrifuged at 355,000 g, 4° C. for 30 minutes. CSF or brain supernatants are then analyzed for the presence of A-beta peptide by specific sandwich ELISA assays based on ECL (Electrochemiluminescence) technology. For example, rat Abeta40 is measured using biotinylated-4G8 (Signet) as a capture antibody and Fab40 (an in-house antibody specific to the C-terminal of Abeta40) as a detection antibody. For example, 4 hours after administration of 30 mg/kg oral dose of the test compound in 2% hydroxypropyl methylcellulose, 1% Tween80 (pH2.2) to 200 g male Sprague Dawley rats, amyloid beta peptide levels are measured for reduction by X % and Y % in cerebrospinal fluid and brain, respectively, when compared to the levels measured in the vehicle-treated or control mice.
as §2
The compounds of the invention may be shown to reduce the formation and/or deposition of amyloid beta peptide in the cerebrospinal fluid (CSF) as well as in the brain of a mouse or rat at either 3 mpk, 10 mpk or 30 mpk (mpk=mg compound per kg weight of the animal) dosing concentrations after 4 h.

human recombinant BACE2 = human recombinant BACE2 (Homo sapiens (Human), UniProt Q9Y5Z0); assay: In vitro enzymatic BACE2 FRET assay; type: biochemical; conditions: BACE2 FRET enzyme assay; read-out: IC50 IP (μM) BACE2 enzyme
In short: as §3

Recombinant Cat D, sequence (P07339 65-412): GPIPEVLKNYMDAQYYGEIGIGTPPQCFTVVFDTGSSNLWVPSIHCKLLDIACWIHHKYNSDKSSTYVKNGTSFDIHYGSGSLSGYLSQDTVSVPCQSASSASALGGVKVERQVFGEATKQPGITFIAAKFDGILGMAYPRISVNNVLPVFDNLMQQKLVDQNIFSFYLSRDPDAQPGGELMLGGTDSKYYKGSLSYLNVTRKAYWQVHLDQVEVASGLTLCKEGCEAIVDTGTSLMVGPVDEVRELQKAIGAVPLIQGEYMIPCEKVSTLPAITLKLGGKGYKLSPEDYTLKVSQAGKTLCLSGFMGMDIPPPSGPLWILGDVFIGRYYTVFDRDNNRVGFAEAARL
human recombinant BACE2, sequence (Q9Y5Z0 63-518): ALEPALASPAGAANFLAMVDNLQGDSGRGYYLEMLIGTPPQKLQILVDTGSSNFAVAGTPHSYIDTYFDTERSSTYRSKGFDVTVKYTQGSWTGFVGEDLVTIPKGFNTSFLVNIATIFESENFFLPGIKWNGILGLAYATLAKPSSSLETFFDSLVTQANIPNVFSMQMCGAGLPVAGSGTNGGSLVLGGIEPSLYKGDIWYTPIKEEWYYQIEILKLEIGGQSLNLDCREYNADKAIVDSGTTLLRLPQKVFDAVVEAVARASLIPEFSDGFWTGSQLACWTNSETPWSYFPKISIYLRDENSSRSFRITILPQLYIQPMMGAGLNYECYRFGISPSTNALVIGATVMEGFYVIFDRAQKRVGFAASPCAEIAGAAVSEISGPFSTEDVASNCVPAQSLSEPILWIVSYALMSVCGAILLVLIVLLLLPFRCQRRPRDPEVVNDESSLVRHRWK
human recombinant BACE1, sequence (P56817 46-501): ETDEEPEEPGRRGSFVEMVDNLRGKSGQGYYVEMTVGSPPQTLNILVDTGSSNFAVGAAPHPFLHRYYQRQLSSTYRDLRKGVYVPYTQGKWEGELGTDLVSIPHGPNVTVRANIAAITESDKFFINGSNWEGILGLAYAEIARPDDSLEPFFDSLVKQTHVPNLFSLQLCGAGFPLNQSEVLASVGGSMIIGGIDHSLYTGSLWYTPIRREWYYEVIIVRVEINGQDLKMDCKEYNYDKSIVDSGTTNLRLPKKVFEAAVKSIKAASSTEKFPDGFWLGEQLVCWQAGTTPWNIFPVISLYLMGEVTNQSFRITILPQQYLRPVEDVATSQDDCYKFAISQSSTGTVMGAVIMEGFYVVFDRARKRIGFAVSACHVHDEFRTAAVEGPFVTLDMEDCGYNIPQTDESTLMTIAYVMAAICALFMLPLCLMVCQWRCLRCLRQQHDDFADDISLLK

## COc1cnc(C(=O)Nc2ccc(F)c([C@@]3(CF)N=C(N)S[C@H]4C[C@H]43)c2)cn1 [Example 4, N-(3-((1S,5S,6S)-3-amino-5-(fluoromethyl)-2-thia-4-azabicyclo[4.1.0]hept-3-en-5-yl)-4-fluorophenyl)-5-methoxy-2-pyrazinecarboxamide]
Aβ 40 in rat brain
  % Aβ 40 reduction in rat brain at 10 mpk: 18%
Human recombinant BACE1
  IC50: 0.0696 µM
Recombinant Cat D
  IC50: 1840 µM
[1]; BACE1 cell-based assay
  IC50: 0.0164 µM
Aβ 40 in rat CSF
  % Aβ 40 reduction in rat CSF at 10 mpk: 40%

## C[C@]1(c2cc(NC(=O)c3ccc(Cl)cn3)cc(F)c2F)N=C(N)S[C@H]2C[C@H]21 [Example 6, N-(3-((1S,5S,6S)-3-amino-5-methyl-2-thia-4-azabicyclo[4.1.0]hept-3-en-5-yl)-4,5-difluorophenyl)-5-chloro-2-pyridinec arboxamide]
Aβ 40 in rat CSF
  % Aβ 40 reduction in rat CSF at 10 mpk: 78%

## C[C@]1(c2cc(NC(=O)c3ccc(Cl)cn3)cc(F)c2F)N=C(N)S[C@@]2(CF)C[C@H]21 [Example 12, N-(3-((1S,5S,6S)-3-amino-1-(fluoromethyl)-5-methyl-2-thia-4-azabicyclo[4.1.0]hept-3-en-5-yl)-4,5-difluorophenyl)-5-chloropicolinamide]
Aβ 40 in rat CSF
  % Aβ 40 reduction in rat CSF at 10 mpk: 75%

## N#Cc1cnc2c(Nc3cc(F)c(F)c([C@@]4(CF)N=C(N)S[C@H]5C[C@H]54)c3)nccc2c1 [Example 26, 8-((3-((1S,5S,6S)-3-amino-5-(fluoromethyl)-2-thia-4-azabicyclo[4.1.0]hept-3-en-5-yl)-4,5-difluorophenyl)amino)-1,7-naphthyridine-3-carbonitrile]
Aβ 40 in rat brain
  % Aβ 40 reduction in rat brain at 10 mpk: 34%
Human recombinant BACE1
  IC50: 0.0107 µM
Recombinant Cat D
  IC50: > 133 µM
[1]; BACE1 cell-based assay
  IC50: 0.0213 µM
Aβ 40 in rat CSF
  % Aβ 40 reduction in rat CSF at 10 mpk: 38%

## N#Cc1cnc2c(Nc3cc(F)c(F)c([C@@]4(CF)N=C(N)S[C@H]5C[C@H]54)c3)ncnc2c1 [Example 28, 4-((3-((1S,5S,6S)-3-amino-5-(fluoromethyl)-2-thia-4-azabicyclo[4.1.0]hept-3-en-5-yl)-4,5-difluorophenyl)amino)pyrido[3,2-d]pyrimidine-7-carbonitrile]
Aβ 40 in rat brain
  % Aβ 40 reduction in rat brain at 10 mpk: 26%
Human recombinant BACE2
  IC50: 0.0497 µM
Recombinant Cat D
  IC50: 466 µM
[1]; BACE1 cell-based assay
  IC50: 0.0204 µM
Aβ 40 in rat CSF
  % Aβ 40 reduction in rat CSF at 10 mpk: 42%

## C[C@]1(c2cc(Nc3ncnc4cc(C#N)cnc34)cc(F)c2F)N=C(N)S[C@H]2C[C@H]21 [Example 36, 4-((3-((1S,5S,6S)-3-amino-5-methyl-2-thia-4-azabicyclo[4.1.0]hept-3-en-5-yl)-4,5-difluorophenyl)amino)pyrido[3,2-d]pyrimidine-7-carbonitrile]
Aβ 40 in rat brain
  % Aβ 40 reduction in rat brain at 10 mpk: 46%
Human recombinant BACE2
  IC50: 0.0562 µM
Recombinant Cat D
  IC50: 250 µM
[1]; BACE1 cell-based assay
  IC50: 0.00767 µM
Aβ 40 in rat CSF
  % Aβ 40 reduction in rat CSF at 10 mpk: 74%

## NC1=N[C@](CF)(c2cc(Nc3ncnc4cc(Cl)cnc34)ccc2F)[C@H]2C[C@@H]2S1 [Example 39, N-(3-((1S,5S,6S)-3-amino-5-(fluoromethyl)-2-thia-4-azabicyclo[4.1.0]hept-3-en-5-yl)-4-fluorophenyl)-7-chloropyrido[3,2-d]pyrimidin-amine]
Aβ 40 in rat brain
  % Aβ 40 reduction in rat brain at 10 mpk: 23%
[1]; BACE1 cell-based assay
  IC50: 0.024 µM
Aβ 40 in rat CSF
  % Aβ 40 reduction in rat CSF at 10 mpk: 50%

## C#CCOc1cnc(C(=O)Nc2cc(F)c(F)c([C@@]3(C)N=C(N)S[C@@]4(COC)C[C@H]43)c2)cn1 [Example 72, N-(3-((1S,5S,6S)-3-amino-1-(methoxymethyl)-5-methyl-2-thia-4-azabicyclo[4.1.0]hept-3-en-5-yl)-4,5-difluorophenyl)-5-(2-propyn-1-yloxy)-2-pyrazinecarboxamide]
[1]; BACE1 cell-based assay
  IC50: 0.00082 µM
Aβ 40 in rat CSF
  % Aβ 40 reduction in rat CSF at 10 mpk: 85%

## C#CCOc1cnc(C(=O)Nc2cc(F)c(F)c([C@@]3(C)N=C(N)S[C@@]4(C(F)F)C[C@@H]34)c2)cn1 [Example 807, N-(3-((1S,5S,6S)-3-amino-1-(difluoromethyl)-5-methyl-2-thia-4-azabicyclo[4.1.0]hept-3-en-5-yl)-4,5-difluorophenyl)-5-(2-propyn-1-yloxy)-2-pyrazinecarboxamide]
Aβ 40 in rat CSF
  % Aβ 40 reduction in rat CSF (3 mpk): 80 (3 mpk) %

## C#CCOc1cnc(C(=O)Nc2cc(F)c(F)c([C@@]3(C)N=C(N)S[C@@]4(CF)C[C@H]43)c2)cn1 [Example 810, N-(3-((1S,5S,6S)-3-amino-1-(fluoromethyl)-5-methyl-2-thia-4-azabicyclo[4.1.0]hept-3-en-5-yl)-4,5-difluorophenyl)-5-(prop-2-yn-1-yloxy)pyrazine-2-carboxamide]
Aβ 40 in rat brain
  % Aβ 40 reduction in rat brain (3 mpk): 74 (3 mpk) %
Aβ 40 in rat CSF
  % Aβ 40 reduction in rat CSF (3 mpk): 79 (3 mpk) %

## COC[C@]12C[C@H]1[C@@](C)(c1cc(NC(=O)c3cnc(OCC(F)(F)F)cn3)cc(F)c1F)N=C(N)S2 [Example 815, N-(3-((1S,5S,6S)-3-amino-1-(methoxymethyl)-5-methyl-2-thia-4-azabicyclo[4.1.0]hept-3-en-5-yl)-4,5-difluorophenyl)-5-(2,2,2-trifluoroethoxy)-2-pyrazinecarboxamide]
Aβ 40 in rat CSF
  % Aβ 40 reduction in rat CSF at 10 mpk: 50%

## [2H]C([2H])([2H])OC[C@]12C[C@H]1[C@@](C)(c1cc(NC(=O)c3cnc(OCC#C)cn3)cc(F)c1F)N=C(N)S2 [Example 969, N-(3-((1S,5S,6S)-3-amino-5-methyl-1-(((trideuterium)methyloxy)methyl)-2-thia-4-azabicyclo[4.1.0]hept-3-en-5-yl)-4,5-difluorophenyl)-5-(2-propyn-1-yloxy)-2-pyrazinecarboxamide]
Aβ 40 in rat brain
  % Aβ 40 reduction in rat brain (3 mpk): 79 (3 mpk) %
[1]
  IC50: 0.000687 µM
Aβ 40 in rat CSF
  % Aβ 40 reduction in rat CSF (3 mpk): 79 (3 mpk) %
